Laboratory results: patent US10689365B2, “Substituted 2-alkylimidazolylcarboxamides as pesticides” (Bayer CropScience Aktiengesellschaft, priority 2016, dated 2020)
Where two headings read alike, the source gives them in different places.

How the values were obtained:
Myzus persicae [1] = experiment: Myzus persicae - spray test (Chinese cabbage leaf discs); format: in vivo; conditions: application rate 500 g/ha, after 5-6 days; for pest or weed control at 500 g/ha: Myzus persicae, foliar, read-out: efficacy
Protocol: Myzus persicae—Spray Test
Solvent: 78 parts by weight of acetone • • 1.5 parts by weight of dimethylformamide
(§1) Emulsifier: alkylaryl polyglycol ether
(§2) To produce a suitable active compound preparation, 1 part by weight of active compound is dissolved using the stated parts by weight of solvent and made up with water containing an emulsifier concentration of 1000 ppm until the desired concentration is attained. To produce further test concentrations, the formulation is diluted with emulsifier-containing water.
Discs of Chinese cabbage leaves (Brassica pekinensis) infested by all stages of the green peach aphid (Myzus persicae) are sprayed with an active ingredient formulation of the desired concentration.
After 5-6 days, the efficacy in % is determined. 100% means that all the aphids have been killed; 0% means that no aphids have been killed.

Myzus persicae [2] = experiment: Myzus persicae - oral test; format: in vivo; conditions: application rate 20 ppm, after 5 days; for pest or weed control at 20 ppm: Myzus persicae, po, 120 h, read-out: efficacy
Protocol: (§3) Solvent: 100 parts by weight of acetone
(§4) To produce a suitable preparation of active compound, 1 part by weight of active compound is dissolved using the specified parts by weight of solvent and made up with water until the desired concentration is attained.
(§5) 50 μl of the active compound preparation are transferred into microtitre plates and made up to a final volume of 200 μl with 150 μl of IPL41 insect medium (33%+15% sugar). Subsequently, the plates are sealed with parafilm, which a mixed population of green peach aphids (Myzus persicae) within a second microtitre plate is able to puncture and imbibe the solution through it.
After 5 days, the efficacy in % is determined. 100% means that all the aphids have been killed; 0% means that no aphids have been killed.

[3] = log P by HPLC on reversed-phase (C18) columns, OECD Guideline 117; format: physicochemical; conditions: for chromatographic logP: reversed-phase (C18) HPLC column
Protocol: The log P values were determined in accordance with OECD Guideline 117 (EC Directive 92/69/EEC) by HPLC (high-performance liquid chromatography) using reversed-phase (RP) columns (C18), by the following methods:
[a] The LC-MS determination in the acidic range was carried out at pH 2.7 with 0.1% aqueous formic acid and acetonitrile (contains 0.1% formic acid) as mobile phases; linear gradient from 10% acetonitrile to 95% acetonitrile.
[b] LC-MS determination in the neutral range was carried out at pH 7.8 with 0.001 molar aqueous ammonium hydrogencarbonate solution and acetonitrile as mobile phases; linear gradient from 10% acetonitrile to 95% acetonitrile.

Myzus persicae [4] = experiment: Myzus persicae - spray test (MYZUPE), Chinese cabbage leaf discs; format: in vivo; conditions: foliar; for percent efficacy (aphid mortality) at 20 g/ha / Emax at 20 g/ha: 20 g of ai/ha; for percent efficacy (aphid mortality) at 100 g/ha: 100 g of ai/ha; for Emax at 20 g/ha: read-out: % efficacy
Protocol: Myzus persicae—Spray Test (MYZUPE)
Solvent: 78.0 parts by weight of acetone • • 1.5 parts by weight of dimethylformamide
as §1, §2
Discs of Chinese cabbage leaves (Brassica pekinensis) infested by all stages of the green peach aphid (Myzus persicae) are sprayed with an active compound preparation of the desired concentration.
(§6) After the desired period of time, the efficacy in % is determined. 100% means that all the aphids have been killed; 0% means that no aphids have been killed.

Myzus persicae [5] = experiment: Myzus persicae - drench test (MYZUPE D), Savoy cabbage in soil; format: in vivo; conditions: 240 h, 10 dat, read-out: % efficacy
Protocol: Myzus persicae—Drench Test (MYZUPE D)
To produce a suitable active compound preparation, 1 part by weight of active compound is mixed with the specified amounts of solvent and emulsifier, and the concentrate is diluted with water to the desired concentration, it being necessary to include the volume of soil which is drenched in the calculation. It should be ensured that a concentration of 40 ppm of emulsifier in the soil is not exceeded. To produce further test concentrations, water is used for dilution.
Savoy cabbage (Brassica oleracea) in pots with soil and infested by all stages of the green peach aphid (Myzus persicae) is watered with an active compound preparation of the desired concentration.
as §6

Myzus persicae [6] = experiment: Myzus persicae - oral test (MYZUPE O); format: in vivo; conditions: read-out: % efficacy
Protocol: Myzus persicae—Oral Test (MYZUPE O)
as §3, §4, §5, §6

Aphis gossypii = Aphis gossypii - spray test (APHIGO S), cotton plants; format: in vivo; conditions: 144 h, 6 dat, read-out: % efficacy
Protocol: Aphis gossypii—Spray Test (APHIGO S)
Solvent: 14 parts by weight of dimethylformamide
as §1
To produce a suitable active compound preparation, 1 part by weight of active compound is dissolved using the stated parts by weight of solvent and made up with water containing an emulsifier concentration of 1000 ppm until the desired concentration is attained. To produce further test concentrations, the formulation is diluted with emulsifier-containing water. If the addition of ammonium salts or/and penetrants is required, these are each added in a concentration of 1000 ppm to the formulation solution.
Cotton plants (Gossypium hirsutum) heavily infested by the cotton aphid (Aphis gossypii) are sprayed with an active ingredient formulation of the desired concentration.
After the desired time, the kill in % is determined. 100% means that all the aphids have been killed; 0% means that no aphids have been killed.

[7] = neutral range, pH 7.8, aqueous ammonium hydrogencarbonate/acetonitrile, read-out: logP[n]
[8] = acidic range, pH 2.7, 0.1% aqueous formic acid/acetonitrile
[9] = neutral range, pH 7.8, aqueous ammonium hydrogencarbonate/acetonitrile
[10] = acidic range, pH 2.7, 0.1% aqueous formic acid/acetonitrile, read-out: logP[a]

| Compound | pest or weed control at 500 g/ha (Myzus persicae [1]) [%] | pest or weed control at 20 ppm (Myzus persicae [2]) [%] | chromatographic logP [3, 7] | efficacy (Myzus persicae [1]) [%] | efficacy (Myzus persicae [2]) [%] | logP[a] [3, 8] | logP[n] [3, 9] | percent efficacy (aphid mortality) at 100 g/ha (Myzus persicae [4]; 120 h, 5 dat) [%] | Emax at 4 ppm (Myzus persicae [6]; 120 h, 5 dat) [%] | chromatographic logP [3, 10] | other results |
| --- | --- | --- | --- | --- | --- | --- | --- | --- | --- | --- | --- |
| COCc1ncc(C(=O)N(C)c2cccnc2)n1C [Example I-1-22, 2-(Methoxymethyl)-N,1-dimethyl-N-(pyridin-3-yl)-1H-imidazole-5-carboxamide] | 100 | 100 | 0.63 | – | – | – | – | – | – | – | – |
| CN(C(=O)c1cnc(COCC2CC2)n1C)c1cccnc1 [Example I-1-23] | – | – | – | 100 | 100 | 0.67 | 1.29 | – | – | – | – |
| CN(C(=O)c1cnc(COc2cccc(Cl)c2)n1C)c1cccnc1 [Example I-1-24] | – | – | – | 100 | 90 | 1.69 | 2.02 | – | – | – | – |
| CN(C(=O)c1cnc(COCc2ccccc2)n1C)c1cccnc1 [Example I-1-25] | – | – | – | 90 | 100 | 1.10 | 1.63 | – | – | – | – |
| CCSCc1ncc(C(=O)N(C)c2cccnc2)n1C [Example I-1-27] | 90 | 100 | 1.18 | – | – | – | – | 90 | 100 | 0.46 | percent efficacy (aphid mortality) at 20 g/ha (Myzus persicae [4]; 120 h, 5 dat): 90%; Emax at 0.16 ppm (Myzus persicae [5]): 98%; Emax at 0.8 ppm (Aphis gossypii): 98%; Emax at 4 ppm (Aphis gossypii; 4 ppm): 100% |
| COC(=O)CSCc1ncc(C(=O)N(C)c2cccnc2)n1C [Example I-1-37] | 100 | 100 | 1.04 | – | – | – | – | – | 100 | 0.35 | – |
| CN(C(=O)c1cnc(CSc2ccccc2)n1C)c1cccnc1 [Example I-1-38] | 90 | 90 | 1.73 | – | – | – | – | – | 100 | 1.14 | Emax at 0.8 ppm (Aphis gossypii): 60%; percent kill (mortality) of aphids at a fixed dose at 4 ppm (Aphis gossypii; 4 ppm): 100% |
| CN(C(=O)c1cnc(CSc2ccccc2Cl)n1C)c1cccnc1 [Example I-1-39] | 90 | 100 | 1.99 | – | – | – | – | 90 | 100 | 1.41 | percent efficacy (aphid mortality) at 20 g/ha (Myzus persicae [4]; 120 h, 5 dat): 90%; Emax at 0.8 ppm (Aphis gossypii): 30%; Emax at 4 ppm (Aphis gossypii; 4 ppm): 95% |
| CN(C(=O)c1cnc(CSc2cccc(Cl)c2)n1C)c1cccnc1 [Example I-1-40] | 90 | 100 | 2.11 | – | – | – | – | 90 | 100 | 1.55 | – |
| CN(C(=O)c1cnc(CSc2ccc(Cl)cc2)n1C)c1cccnc1 [Example I-1-41] | 90 | 100 | 2.07 | – | – | – | – | 90 | 100 | 1.57 | Emax at 20 g/ha (Myzus persicae [4]; 120 h, 5 dat): 70%; Emax at 0.8 ppm (Aphis gossypii): 35%; Emax at 4 ppm (Aphis gossypii; 4 ppm): 100% |
| CN(C(=O)c1cnc(CSc2ncccn2)n1C)c1cccnc1 [Example I-1-42] | 100 | 100 | 1.01 | – | – | – | – | 70 | 90 | 0.27 | – |
| CN(C(=O)c1cnc(Cn2ccnn2)n1C)c1cccnc1 [Example I-1-46] | 100 | 100 | 0.42 | – | – | – | – | – | – | 0.05 | percent efficacy (aphid mortality) at 20 g/ha (Myzus persicae [4]; 144 h, 6 dat): 90%; percent efficacy (aphid mortality) at 100 g/ha (Myzus persicae [4]; 144 h, 6 dat): 90%; Emax at 4 ppm (Myzus persicae [6]; 144 h, 6 dat): 100% |
| C=Cc1ncc(C(=O)N(CC)c2cccnc2)n1C [Example I-1-56] | – | – | – | 90 | 90 | 0.18 | 1.10 | – | – | – | – |
| CN(C(=O)c1cnc(COc2ccc(Cl)cc2)n1C)c1cccnc1 [Example I-1-62] | – | – | – | 100 | 100 | 1.63 | 2.00 | – | – | – | – |
| CN(C(=O)c1cnc(COCC(F)(F)F)n1C)c1cccnc1 [Example I-1-63] | – | – | – | 90 | 100 | 0.84 | 1.36 | – | – | – | – |
| CCOCc1ncc(C(=O)N(C)c2cccnc2)n1C [Example I-1-64] | – | – | – | 100 | 100 | 0.18 | 0.92 | – | – | – | – |
| CC(C)OCc1ncc(C(=O)N(C)c2cccnc2)n1C [Example I-1-65] | – | – | – | 90 | 100 | 0.42 | 1.20 | – | – | – | – |
| Cc1nc(C(=O)Nc2cccnc2)c[nH]1 [Prior art WO2011/009804 (Ex. 14), reference compound] | – | – | – | – | – | – | – | 0 | 0 | – | percent efficacy (aphid mortality) at 20 g/ha (Myzus persicae [4]; 120 h, 5 dat): 0% |
| O=C(Nc1cccnc1)c1c[nH]cn1 [Prior art WO 2011/009804 (Ex. 13), reference compound] | – | – | – | – | – | – | – | – | – | – | percent efficacy (aphid mortality) at 20 g/ha (Myzus persicae [4]; 144 h, 6 dat): 0%; percent efficacy (aphid mortality) at 100 g/ha (Myzus persicae [4]; 144 h, 6 dat): 0%; Emax at 4 ppm (Myzus persicae [6]; 144 h, 6 dat): 0% |
| Cc1ncc(C(=O)Nc2cccnc2)n1C [reference compound] | – | – | – | – | – | – | – | 70 | – | – | Emax at 20 g/ha (Myzus persicae [4]; 120 h, 5 dat): 0% |
